From patent publication US20230097157A1, “Bicyclic Pyridin-2-one and pyrimidin-4-one Derivatives Useful As a Factor XIa Inhibitors” (Janssen Pharmaceutica NV, priority 2021, published 2023) come the findings set out here.

For one test, the target named is Factor XIa (Homo sapiens, UniProt P03951). The experiment in a line: Factor XIa inhibition assay (FLINT) utilizing a fluorophore-quencher pair peptide substrate 5Fam-[…]-K5Tamra. It counts as biochemical. Particulars: kinetic (KIN) reads, read-out: FXIa KIN Inh IC50. The method in brief:
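FXIa was preincubated with compound for 30 min at room temperature in Tris pH 7.5 buffer containing CaCl2, BSA and CHAPS, then reacted with 15 μM quenched 5Fam/Tamra peptide substrate. Fluorescence (485/520 nm) was read kinetically every 5 min for 30 min.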

A further test addresses human plasma kallikrein (Homo sapiens, UniProt P03952). Kind of test: Kallikrein inhibition assay (FLINT) utilizing a quenched AMC peptide substrate Z-Gly-Pro-Arg-AMC. The test is classed as biochemical. Particulars: kinetic (KIN) reads, read-out: Kallikrein KIN Inh IC50. In outline:
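Human plasma kallikrein (2 nM final) pre-incubated 30 min with compound (11-point 3-fold series, top 1 μM, 2% DMSO), then 50 μM Z-Gly-Pro-Arg-AMC added. Buffer 50 mM Tris pH 7.5, 100 mM NaCl, 5 mM CaCl2, BSA, CHAPS. AMC fluorescence (340/440 nm) read kinetically over 30 min at room temperature, IC50 by 4-parameter logistic fit.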

Read-outs that look alike come from different tables or passages of the source.

A word on the IC50: it is the concentration that gives 50% inhibition.

Factor XIa, sequence (P03951 388-625 limits assumed): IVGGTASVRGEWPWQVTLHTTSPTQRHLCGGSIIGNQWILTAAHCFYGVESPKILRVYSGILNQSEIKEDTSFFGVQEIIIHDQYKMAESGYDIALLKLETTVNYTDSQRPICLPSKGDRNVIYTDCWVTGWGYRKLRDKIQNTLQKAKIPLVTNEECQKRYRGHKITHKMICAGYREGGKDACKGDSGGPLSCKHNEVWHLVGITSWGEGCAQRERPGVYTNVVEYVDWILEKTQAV
Factor XIa, sequence (P03951 19-387 partner limits assumed): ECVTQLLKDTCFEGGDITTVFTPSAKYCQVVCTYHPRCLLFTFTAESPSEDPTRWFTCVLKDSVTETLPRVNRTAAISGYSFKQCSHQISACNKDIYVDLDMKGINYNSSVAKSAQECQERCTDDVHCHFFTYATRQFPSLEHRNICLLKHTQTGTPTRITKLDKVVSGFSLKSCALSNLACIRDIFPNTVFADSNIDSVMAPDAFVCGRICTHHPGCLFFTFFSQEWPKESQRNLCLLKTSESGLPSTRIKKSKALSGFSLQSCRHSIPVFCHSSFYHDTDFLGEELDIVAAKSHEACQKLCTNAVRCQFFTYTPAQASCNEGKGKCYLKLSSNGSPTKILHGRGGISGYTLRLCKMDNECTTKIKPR
human plasma kallikrein, sequence (P03952 391-638 limits assumed): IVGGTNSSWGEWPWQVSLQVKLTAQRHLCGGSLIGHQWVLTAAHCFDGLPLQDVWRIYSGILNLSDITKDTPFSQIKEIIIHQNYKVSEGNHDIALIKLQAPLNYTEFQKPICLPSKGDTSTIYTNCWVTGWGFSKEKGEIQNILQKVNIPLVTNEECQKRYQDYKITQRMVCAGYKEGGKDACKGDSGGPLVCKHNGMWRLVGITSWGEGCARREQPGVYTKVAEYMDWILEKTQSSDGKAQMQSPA
human plasma kallikrein, sequence (P03952 20-390 partner limits assumed): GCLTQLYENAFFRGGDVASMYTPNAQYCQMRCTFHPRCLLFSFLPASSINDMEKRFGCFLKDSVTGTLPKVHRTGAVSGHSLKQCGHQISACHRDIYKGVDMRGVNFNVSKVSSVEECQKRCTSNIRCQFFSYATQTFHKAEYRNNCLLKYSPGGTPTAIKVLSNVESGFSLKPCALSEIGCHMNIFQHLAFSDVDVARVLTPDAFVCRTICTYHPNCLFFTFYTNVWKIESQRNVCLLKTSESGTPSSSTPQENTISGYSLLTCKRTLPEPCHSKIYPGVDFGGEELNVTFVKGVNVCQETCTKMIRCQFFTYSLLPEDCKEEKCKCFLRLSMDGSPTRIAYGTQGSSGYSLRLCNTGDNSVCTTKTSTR

For the compound `COC(=O)Nc1ccc(-c2cnc([C@H]3C[C@@H](C)c4nc(-c5c(-n6cnnn6)ccc(Cl)c5F)cc(=O)n43)[nH]2)cc1` (stereo in doubt) [Example 127, Methyl (4-(2-((6*R,8*R)-2-(3-Chloro-2-fluoro-6-(1H-tetrazol-1-yl)phenyl)-8-methyl-4-oxo-4,6,7,8-tetrahydropyrrolo[1,2-a]pyrimidin-6-yl)-1H-imidazol-5-yl)phenyl)carbamate], the IC50 at Factor XIa (values in nM) came to 190 nM; at human plasma kallikrein (values in nM), 723 nM.

On to `Nc1ccc(-c2cnc(C3CCCCc4cc(-c5c(-n6cnnn6)ccc(Cl)c5F)cc(=O)n43)[nH]2)c(F)n1` (stereo not shown) [Cmpd (IV), 6-(5-(6-amino-2-fluoropyridin-3-yl)-1H-imidazol-2-yl)-2-(3-chloro-2-fluoro-6-(1H-tetrazol-1-yl)phenyl)-7,8,9,10-tetrahydropyrido[1,2-a]azepin-4(6H)-one], for which the results for the IC50 at Factor XIa (values in nM) and at human plasma kallikrein (values in nM) were 48 nM and 160 nM, respectively.

In the case of `O=c1cc(-c2c(-n3cnnn3)ccc(Cl)c2F)nc2n1C(c1nc(F)c(-c3ccnc(CO)c3F)[nH]1)CC21CC1` (racemic) [Example 69, 2′-(3-Chloro-2-fluoro-6-(1H-tetrazol-1-yl)phenyl)-6′-(4-fluoro-5-(3-fluoro-2-(hydroxymethyl)pyridin-4-yl)-1H-imidazol-2-yl)-6′,7′-dihydro-4′H-spiro[cyclopropane-1,8′-pyrrolo[1,2-a]pyrimidin]-4′-one], the results for the IC50 on Factor XIa (values in nM) and on human plasma kallikrein (values in nM) were 19.4 nM and 118 nM, respectively.

Consider `COC(=O)Nc1ccc(-c2cnc([C@H]3C[C@H](C)c4nc(-c5c(-n6cnnn6)ccc(Cl)c5F)cc(=O)n43)[nH]2)cc1` (stereo in doubt) [Example 124, Methyl (4-(2-((6*R,8*S)-2-(3-Chloro-2-fluoro-6-(1H-tetrazol-1-yl)phenyl)-8-methyl-4-oxo-4,6,7,8-tetrahydropyrrolo[1,2-a]pyrimidin-6-yl)-1H-imidazol-5-yl)phenyl)carbamate], for which the values for the IC50 on Factor XIa (values in nM) and on human plasma kallikrein (values in nM) were 8.3 nM and 52.9 nM, respectively.

As for `Nc1ccc(-c2[nH]c(C3CC4(CC4)c4nc(-c5c(-n6cnnn6)ccc(Cl)c5F)cc(=O)n43)nc2F)c(F)n1` (stereo in doubt) [Example 76, (S)-6′-(5-(6-amino-2-fluoropyridin-3-yl)-4-fluoro-1H-imidazol-2-yl)-2′-(3-chloro-2-fluoro-6-(1H-tetrazol-1-yl)phenyl)-6′,7′-dihydro-4′H-spiro[cyclopropane-1,8′-pyrrolo[1,2-a]pyrimidin]-4′-one], the IC50 at Factor XIa (values in nM) was found to be 0.8 nM; on human plasma kallikrein (values in nM), 12.1 nM.

With `[2H]C([2H])([2H])OC(=O)Nc1ccc(-c2cnc(C3CC4(CC4)c4nc(-c5c(-n6cnnn6)ccc(Cl)c5F)cc(=O)n43)[nH]2)cc1` (single isomer, unassigned) [Example 72, Methyl-d3 (S*)-(4-(2-(2′-(3-Chloro-2-fluoro-6-(1H-tetrazol-1-yl)phenyl)-4′-oxo-6′,7′-dihydro-4′H-spiro[cyclopropane-1,8′-pyrrolo[1,2-a]pyrimidin]-6′-yl)-1H-imidazol-5-yl)phenyl)carbamate], the figures for the 50% inhibitory concentration (IC50) on Factor XIa (values in nM) and on human plasma kallikrein (values in nM) were 0.6 nM and 3.3 nM, respectively.

Turning to `C[C@H]1C[C@@H](c2ncc(-c3ccnc(N)c3F)[nH]2)n2c1nc(-c1c(-n3cnnn3)ccc(Cl)c1F)cc2=O` (relative stereo) [Example 88, (6*S,8*S)-6-(5-(2-Amino-3-fluoropyridin-4-yl)-1H-imidazol-2-yl)-2-(3-chloro-2-fluoro-6-(1H-tetrazol-1-yl)phenyl)-8-methyl-7,8-dihydropyrrolo[1,2-a]pyrimidin-4(6H)-one], the values for the IC50 on Factor XIa (values in nM) and at human plasma kallikrein (values in nM) were 2.6 nM and 14.5 nM, respectively.

`C[C@@H]1C[C@H](c2cnc(-c3ccc(N)nc3F)[nH]2)n2c1cc(-c1c(-n3cnnn3)ccc(Cl)c1F)cc2=O` (stereo in doubt) [Example 55, (1R*,3R*)-3-(2-(6-Amino-2-fluoropyridin-3-yl)-1H-imidazol-5-yl)-7-(3-chloro-2-fluoro-6-(1H-tetrazol-1-yl)phenyl)-1-methyl-2,3-dihydroindolizin-5(1H)-one]: the results for the IC50 at Factor XIa (values in nM) and at human plasma kallikrein (values in nM) were 1.1 nM and 42.5 nM, respectively.

For the compound `C[C@@H]1C[C@@H](c2ncc(-c3cnc(N)c(F)c3)[nH]2)n2c1cc(-c1c(-n3cnnn3)ccc(Cl)c1F)cc2=O` (relative stereo) [Example 62, (1*R,3*S)-3-(5-(6-amino-5-fluoropyridin-3-yl)-1H-imidazol-2-yl)-7-(3-chloro-2-fluoro-6-(1H-tetrazol-1-yl)phenyl)-1-methyl-2,3-dihydroindolizin-5(1H)-one], the concentration for half-maximal inhibition (IC50) on Factor XIa (values in nM) turned out to be 19.6 nM; on human plasma kallikrein (values in nM), 18.1 nM.

For the compound `Nc1nsc2cc(-c3cnc([C@H]4CC5(CC5)c5nc(-c6c(-n7cnnn7)ccc(Cl)c6F)cc(=O)n54)[nH]3)ccc12` [Example 82, (R)-6′-(5-(3-Aminobenzo[d]isothiazol-6-yl)-1H-imidazol-2-yl)-2′-(3-chloro-2-fluoro-6-(1H-tetrazol-1-yl)phenyl)-6′,7′-dihydro-4′H-spiro[cyclopropane-1,8′-pyrrolo[1,2-a]pyrimidin]-4′-one], the 50% inhibitory concentration (IC50) at Factor XIa (values in nM) amounted to 53.8 nM; on human plasma kallikrein (values in nM), 142 nM.

Take `C[C@H]1C[C@H](c2ncc(-c3ccc(N)nc3Cl)[nH]2)n2c1nc(-c1c(-n3cnnn3)ccc(Cl)c1F)cc2=O` [Example 141]: the IC50 at Factor XIa (values in nM) worked out at 0.5 nM; at human plasma kallikrein (values in nM), 13.5 nM.

As for `COc1cc(-c2cnc([C@@H]3C[C@H](C)c4nc(-c5c(-n6cnnn6)ccc(Cl)c5F)cc(=O)n43)[nH]2)ccn1` (stereo in doubt) [Example 97, (6*S,8*S)-2-(3-Chloro-2-fluoro-6-(1H-tetrazol-1-yl)phenyl)-6-(5-(2-methoxypyridin-4-yl)-1H-imidazol-2-yl)-8-methyl-7,8-dihydropyrrolo[1,2-a]pyrimidin-4(6H)-one], the values for the 50% inhibitory concentration (IC50) at Factor XIa (unit μM) and at human plasma kallikrein (unit μM) were 6400 nM and > 10000 nM, respectively.

As for `C[C@H]1C[C@@H](c2ncc(-c3cc(N)ncc3F)[nH]2)n2c1cc(-c1c(-n3cnnn3)ccc(Cl)c1F)cc2=O` [Example 19, (1S,3S)-3-(5-(2-Amino-5-fluoropyridin-4-yl)-1H-imidazol-2-yl)-7-(3-chloro-2-fluoro-6-(1H-tetrazol-1-yl)phenyl)-1-methyl-2,3-dihydroindolizin-5(1H)-one], the IC50 at Factor XIa (values in nM) was determined as 25.4 nM; at human plasma kallikrein (values in nM) it was 270 nM.

Take `C[C@H]1C[C@@H](c2ncc(-c3ccc(N)nc3F)[nH]2)n2c1cc(-c1cc(Cl)ccc1-n1cnnn1)cc2=O` (single isomer, unassigned) [Example 36]: the concentration for half-maximal inhibition (IC50) was 1500 nM on Factor XIa (unit μM) and > 10000 nM on human plasma kallikrein (unit μM).

As to `C[C@@H]1C[C@@H](c2ncc(-c3ccnc(F)c3)[nH]2)n2c1cc(-c1c(-n3cnnn3)ccc(Cl)c1F)cc2=O` (relative stereo) [Example 45, (1*R,3*S)-7-(3-Chloro-2-fluoro-6-(1H-tetrazol-1-yl)phenyl)-3-(5-(2-fluoropyridin-4-yl)-1H-imidazol-2-yl)-1-methyl-2,3-dihydroindolizin-5(1H)-one], the half-inhibitory concentration (IC50) at Factor XIa (unit μM) and on human plasma kallikrein (unit μM) was > 10000 nM in each case.

As for `Nc1ccc(-c2cnc(C3CCCc4cc(-c5c(-n6cnnn6)ccc(Cl)c5F)cc(=O)n43)[nH]2)c(F)n1` (single isomer, unassigned) [Cmpd (III), (*S)-6-(5-(6-amino-2-fluoropyridin-3-yl)-1H-imidazol-2-yl)-2-(3-chloro-2-fluoro-6-(1H-tetrazol-1-yl)phenyl)-6,7,8,9-tetrahydro-4H-quinolizin-4-one], the concentration for half-maximal inhibition (IC50) at Factor XIa (values in nM) worked out at 1.2 nM; at human plasma kallikrein (values in nM), 100 nM.

As to `Cc1nc(N)sc1-c1cnc([C@@H]2C[C@H](C)c3cc(-c4c(-n5cnnn5)ccc(Cl)c4F)cc(=O)n32)[nH]1` [Example 26, (1S,3S)-3-(5-(2-Amino-4-methylthiazol-5-yl)-1H-imidazol-2-yl)-7-(3-chloro-2-fluoro-6-(1H-tetrazol-1-yl)phenyl)-1-methyl-2,3-dihydroindolizin-5(1H)-one], the IC50 turned out to be 22.6 nM on Factor XIa (values in nM) and 1300 nM at human plasma kallikrein (unit μM).

For the compound `Cc1nc(N)sc1-c1cnc([C@H]2CC3(CC3)c3nc(-c4c(-n5cnnn5)ccc(Cl)c4F)cc(=O)n32)[nH]1` [Example 132, (R)-6′-(5-(2-Amino-4-methylthiazol-5-yl)-1H-imidazol-2-yl)-2′-(3-chloro-2-fluoro-6-(1H-tetrazol-1-yl)phenyl)-6′,7′-dihydro-4′H-spiro[cyclopropane-1,8′-pyrrolo[1,2-a]pyrimidin]-4′-one], the IC50 on Factor XIa (unit μM) and on human plasma kallikrein (unit μM) was > 10000 nM throughout.

For the compound `C[C@@H]1C[C@H](c2ncc(-c3ccc(NC(=O)C4CC4)nc3)[nH]2)n2c1nc(-c1c(-n3cnnn3)ccc(Cl)c1F)cc2=O` (stereo in doubt) [Example 120, N-(5-(2-((6*R,8*R)-2-(3-Chloro-2-fluoro-6-(1H-tetrazol-1-yl)phenyl)-8-methyl-4-oxo-4,6,7,8-tetrahydropyrrolo[1,2-a]pyrimidin-6-yl)-1H-imidazol-5-yl)pyridin-2-yl)cyclopropanecarboxamide], the half-maximal inhibitory concentration (IC50) at Factor XIa (values in nM) was determined as 12.8 nM; at human plasma kallikrein (values in nM) it was 11.2 nM.

Regarding `Nc1ncc(-c2cnc([C@@H]3CC4(CC4)c4cc(-c5c(-n6cnnn6)ccc(Cl)c5F)cc(=O)n43)[nH]2)s1` [Example 18, (S)-3′-(5-(2-Aminothiazol-5-yl)-1H-imidazol-2-yl)-7′-(3-chloro-2-fluoro-6-(1H-tetrazol-1-yl)phenyl)-2′,3′-dihydro-5′H-spiro[cyclopropane-1,1′-indolizin]-5′-one], the half-inhibitory concentration (IC50) at Factor XIa (values in nM) was determined as 9.1 nM; at human plasma kallikrein (values in nM), 105 nM.
